≈ marks a conversion by molar mass, not a printed value.
Experiments:
Assay in all cases: In vitro antibacterial evaluation: minimum inhibitory concentration (MIC), broth dilution method
Assay type in all cases: cell-based
[1] = test system: Enterococcus sp.; conditions: 18 hours at 35° C.
Procedure, shortened: (§1)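 Broth dilution per NCCLS M7-A2 in Muller-Hinton II […], inoculum 5×10^5 CFU/mL, antibiotic tested over 64-0.06 μg/mL. MIC is taken as the lowest concentration that inhibits growth. Panel includes recent clinical isolates resistant to methicillin, penicillin and/or vancomycin.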

[2] = test system: Streptococcus sp.; conditions: 18 hours at 35° C.
Procedure, shortened: as §1

[3] = test system: Escherichia coli; conditions: 18 hours at 35° C.
Procedure, shortened: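 Following NCCLS approved standard M7-A2, compounds are serially diluted from 64 to 0.06 μg/mL in Muller-Hinton II […] and inoculated at 5×10^5 CFU/mL; the MIC is the minimum concentration at which growth is inhibited.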

[4] = test system: Staphylococcus sp.
Procedure, shortened: as §1

[5] = broth dilution, inoculum 5×10^5 CFU/mL

## CC(c1ccccc1)C1NC(=O)CNC(=O)C(CO)NC(=O)C(C(O)C2CNC(=N)N2C2OC(CO)C(O)C(O)C2O)NC(=O)C(C(O)C2CNC(=N)N2)NC(=O)C(Cc2ccc(OC3OC(CO)C(OC4OC5COC6(CCCCCCCCCCCC6)OC5C(O)C4O)C(O)C3O)cc2)NC1=O (stereo not shown) [Example 210]
[1]; Enterococcus avium (GC 4558)
  MIC Enterococcus avium (GC 4558): 16 µg/mL (≈ 10.9 µM)
[1]; Enterococcus faecalis (ATCC 29212)
  MIC Enterococcus faecalis (ATCC 29212): 32 µg/mL (≈ 21.7 µM)
[1]; Enterococcus faecalis (GC 2242)
  MIC Enterococcus faecalis (GC 2242): 16 µg/mL (≈ 10.9 µM)
[1]; Enterococcus faecalis (GC 2691)
  MIC Enterococcus faecalis (GC 2691): 8 µg/mL (≈ 5.43 µM)
[1]; Enterococcus faecalis (GC 3059)
  MIC Enterococcus faecalis (GC 3059): 32 µg/mL (≈ 21.7 µM)
[1]; Enterococcus faecalis (GC 4552)
  MIC Enterococcus faecalis (GC 4552): 32 µg/mL (≈ 21.7 µM)
[1]; Enterococcus faecalis (GC 4553)
  MIC Enterococcus faecalis (GC 4553): 16 µg/mL (≈ 10.9 µM)
[1]; Enterococcus faecalis (GC 4554)
  MIC Enterococcus faecalis (GC 4554): 32 µg/mL (≈ 21.7 µM)
[1]; Enterococcus faecalis (GC 6189)
  MIC Enterococcus faecalis (GC 6189): 16 µg/mL (≈ 10.9 µM)
[1]; Enterococcus faecium (GC 2243)
  MIC Enterococcus faecium (GC 2243): 32 µg/mL (≈ 21.7 µM)
[1]; Enterococcus faecium (GC 4556)
  MIC Enterococcus faecium (GC 4556): 32 µg/mL (≈ 21.7 µM)
[1]; Enterococcus faecium (GC 4557)
  MIC Enterococcus faecium (GC 4557): 32 µg/mL (≈ 21.7 µM)
[1]; [5]
  MIC Enterococcus avium (GC 4558): 16 µg/mL (≈ 10.9 µM)
  MIC Enterococcus faecalis (ATCC 29212): 32 µg/mL (≈ 21.7 µM)
  MIC Enterococcus faecalis (GC 2242): 16 µg/mL (≈ 10.9 µM)
  MIC Enterococcus faecalis (GC 2691): 8 µg/mL (≈ 5.43 µM)
  MIC Enterococcus faecalis (GC 3059): 32 µg/mL (≈ 21.7 µM)
  MIC Enterococcus faecalis (GC 4552): 32 µg/mL (≈ 21.7 µM)
  MIC Enterococcus faecalis (GC 4553): 16 µg/mL (≈ 10.9 µM)
  MIC Enterococcus faecalis (GC 4554): 32 µg/mL (≈ 21.7 µM)
  MIC Enterococcus faecalis (GC 6189): 16 µg/mL (≈ 10.9 µM)
  MIC Enterococcus faecium (GC 2243): 32 µg/mL (≈ 21.7 µM)
  MIC Enterococcus faecium (GC 4556): 32 µg/mL (≈ 21.7 µM)
  MIC Enterococcus faecium (GC 4557): 32 µg/mL (≈ 21.7 µM)
[2]; Streptococcus agalactiae (GC 4564)
  MIC Streptococcus agalactiae (GC 4564): 0.25 µg/mL (≈ 0.17 µM)
[2]; Streptococcus pneumoniae (ATCC 6301)
  MIC Streptococcus pneumoniae (ATCC 6301): 0.25 µg/mL (≈ 0.17 µM)
[2]; Streptococcus pneumoniae (GC 1894)
  MIC Streptococcus pneumoniae (GC 1894): <0.06 µg/mL
[2]; Streptococcus pneumoniae (GC 4565)
  MIC Streptococcus pneumoniae (GC 4565): <0.06 µg/mL
[2]; Streptococcus pyogenes (GC 4563)
  MIC Streptococcus pyogenes (GC 4563): 2 µg/mL (≈ 1.36 µM)
[2]; [5]
  MIC Streptococcus agalactiae (GC 4564): 0.25 µg/mL (≈ 0.17 µM)
  MIC Streptococcus pneumoniae (ATCC 6301): 0.25 µg/mL (≈ 0.17 µM)
  MIC Streptococcus pneumoniae (GC 1894): <0.06 µg/mL
  MIC Streptococcus pneumoniae (GC 4565): <0.06 µg/mL
  MIC Streptococcus pyogenes (GC 4563): 2 µg/mL (≈ 1.36 µM)
[3]; Escherichia coli (ATCC 25922)
  MIC Escherichia coli (ATCC 25922): >64 µg/mL
[3]; Escherichia coli (GC 4559)
  MIC Escherichia coli (GC 4559): >64 µg/mL
[3]; Escherichia coli (GC 4560)
  MIC Escherichia coli (GC 4560): 64 µg/mL (≈ 43.4 µM)
[4]; strain ATCC 29213
  MIC Staphylococcus aureus (ATCC 29213): 32 µg/mL (≈ 21.7 µM)
[4]; strain GC 1131
  MIC Staphylococcus aureus (GC 1131): 32 µg/mL (≈ 21.7 µM)
[4]; strain GC 3051
  MIC Staphylococcus aureus (GC 3051): 32 µg/mL (≈ 21.7 µM)
[4]; strain GC 3053
  MIC Staphylococcus aureus (GC 3053): 32 µg/mL (≈ 21.7 µM)
[4]; strain GC 4541
  MIC Staphylococcus aureus (GC 4541): 32 µg/mL (≈ 21.7 µM)
[4]; strain GC 4542
  MIC Staphylococcus aureus (GC 4542): 32 µg/mL (≈ 21.7 µM)
[4]; strain GC 4543
  MIC Staphylococcus aureus-SMITH (GC 4543): 32 µg/mL (≈ 21.7 µM)
[4]; strain GC 4544
  MIC Staphylococcus aureus (GC 4544): 32 µg/mL (≈ 21.7 µM)
[4]; strain GC 4545
  MIC Staphylococcus aureus (GC 4545): 32 µg/mL (≈ 21.7 µM)
[4]; strain GC 4546
  MIC Staphylococcus haemolyticus (GC 4546): 32 µg/mL (≈ 21.7 µM)
[4]; strain GC 4547
  MIC Coagulase Negative Staphylococcus (GC 4547): 32 µg/mL (≈ 21.7 µM)
[4]; strain GC 4548
  MIC Coagulase Negative Staphylococcus (GC 4548): 32 µg/mL (≈ 21.7 µM)
[4]; strain GC 4549
  MIC Coagulase Negative Staphylococcus (GC 4549): 8 µg/mL (≈ 5.43 µM)
[4]; strain GC 4551
  MIC Coagulase Negative Staphylococcus (GC 4551): 32 µg/mL (≈ 21.7 µM)
[4]; strain GC 6257
  MIC Coagulase Negative Staphylococcus (GC 6257): 32 µg/mL (≈ 21.7 µM)

From patent US8247211B2, “Glycopeptide antibiotics” (American Cyanamid Company, priority 2001, dated 2012)
